Assay results as given in ChEMBL document CHEMBL1127945, “5-Aryl-, butenolide, a new class of antibacterial derived from the N-aryl oxazolidinone DUP 721” (1994).
Values after ≈ are worked out from the molar mass of the structure shown.

What was measured:
Format in all cases: functional
[1] = test system: Enterococcus faecalis; experiment: In vitro antibacterial activity against vancomycin resistant strain Streptococcus faecalis 02D2DU17
[2] = test system: Escherichia coli; experiment: In vitro antibacterial activity against Escherichia coli UC 1894
[3] = test system: Staphylococcus aureus; experiment: In vitro antibacterial activity against sensitive strain Staphylococcus aureus SG 511
[4] = test system: Enterococcus faecium; experiment: In vitro antibacterial activity against vancomycin resistant strain Streptococcus faecium 02D3IP1
[5] = test system: Staphylococcus epidermidis; experiment: In vitro antibacterial activity against oxacilline resistant strain Staphylococcus epidermidis 012GO39
[6] = test system: Enterococcus faecium; experiment: In vitro antibacterial activity against sensitive strain Streptococcus faecium M78L
[7] = test system: Streptococcus pyogenes; experiment: In vitro antibacterial activity against sensitive strain Streptococcus pyogenes 77A
[8] = test system: Staphylococcus aureus; experiment: In vitro antibacterial activity against oxacilline resistant strain Staphylococcus aureus O11CB20

SMILES	MIC [1] [mg/L]	MIC [2] [mg/L]	MIC [3] [mg/L]	MIC [4] [mg/L]	MIC [5] [mg/L]	MIC [6] [mg/L]	MIC [7] [mg/L]	MIC [8] [mg/L]
CC(=O)NC[C@@H]1CC(=O)N(c2ccc(C(C)=O)cc2)C1	> 40	> 40	> 40	> 40	> 40	> 40	> 40	
CC(=O)NC[C@@H]1CCN(c2ccc(C(C)=O)cc2)C1	> 40	> 40	> 40	> 40	> 40	> 40	> 40	
CC(=O)NC[C@H]1C=C(c2ccc(C(C)=O)cc2)C(=O)O1	2.5 (≈ 9.15 µM)	> 40	1.2 (≈ 4.39 µM)	2.5 (≈ 9.15 µM)	2.5 (≈ 9.15 µM)	5 (≈ 18.3 µM)	2.5 (≈ 9.15 µM)	1.2 (≈ 4.39 µM)
CC(=O)NC[C@H]1CN(c2ccc(C(C)=O)cc2)C(=O)O1 [DUP-721]	2.5 (≈ 9.05 µM)	> 40	1.2 (≈ 4.34 µM)	< 1.2	2.5 (≈ 9.05 µM)	2.5 (≈ 9.05 µM)	0.6 (≈ 2.17 µM)	1.2 (≈ 4.34 µM)
